Measured values published in PubChem BioAssay (NCI).
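Values below derive from 48-hour exposures of cells grown in 96-well plates, with endpoints linearly interpolated between the two concentrations bracketing the appropriate inhibition level. TGI is the concentration that stops growth completely.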 Where a SMILES comes first, the peptide text is derived from it. The star is where a group is joined. Boc = CC(C)(C)OC(=O)*

Experiments:
Test in all cases: NCI-60 cell line screen, 48 h
SF-295 CNS = system: SF-295 CNS
NCI-H522 lung = system: NCI-H522 lung
SK-MEL-5 melanoma = system: SK-MEL-5 melanoma
UACC-257 melanoma = system: UACC-257 melanoma
SNB-75 CNS = system: SNB-75 CNS
UACC-62 melanoma = system: UACC-62 melanoma
MOLT-4 leukemia = system: MOLT-4 leukemia
SK-MEL-2 melanoma = system: SK-MEL-2 melanoma
SK-OV-3 ovarian = system: SK-OV-3 ovarian
KM12 colon = system: KM12 colon
ACHN renal = system: ACHN renal
OVCAR-8 ovarian = system: OVCAR-8 ovarian
HCT-116 colon = system: HCT-116 colon
HL-60(TB) leukemia = system: HL-60(TB) leukemia
HCC-2998 colon = system: HCC-2998 colon
MDA-MB-435 = system: MDA-MB-435
A498 renal = system: A498 renal
MCF7 breast = system: MCF7 breast
HS 578T breast = system: HS 578T breast
NCI/ADR-RES ovarian = system: NCI/ADR-RES ovarian

SMILES | TGI (SF-295 CNS) [µM] | TGI (NCI-H522 lung) [µM] | TGI (SK-MEL-5 melanoma) [µM] | TGI (UACC-257 melanoma) [µM] | TGI (SNB-75 CNS) [µM] | TGI (UACC-62 melanoma) [µM] | TGI (MOLT-4 leukemia) [µM] | TGI (SK-MEL-2 melanoma) [µM] | TGI (SK-OV-3 ovarian) [µM] | TGI (KM12 colon) [µM] | TGI (ACHN renal) [µM] | TGI (OVCAR-8 ovarian) [µM] | TGI (HCT-116 colon) [µM] | TGI (HL-60(TB) leukemia) [µM] | TGI (HCC-2998 colon) [µM] | TGI (MDA-MB-435) [µM] | TGI (A498 renal) [µM] | TGI (MCF7 breast) [µM] | TGI (HS 578T breast) [µM] | TGI (NCI/ADR-RES ovarian) [µM]
COc1cccc(NC(=O)CSc2nnc(-c3ccc(NC(C)=O)cc3)o2)c1 | > 100 | > 100 | > 100 | > 100 | > 100 | > 100 | > 100 | > 100 | > 100 | > 100 | > 100 | > 100 | > 100 | > 100 | – | – | – | – | – | –
C/C=C1\CN2CCc3c([nH]c4ccccc34)C2CC1C(=O)OC (stereo not drawn) | > 322 | > 322 | > 322 | > 322 | – | > 322 | > 322 | > 322 | > 322 | > 322 | > 322 | > 322 | > 322 | > 32.2 | > 322 | – | – | – | – | –
CC1=NC(=Cc2cccc(Cl)c2)C(=O)N1n1c(-c2ccccc2)nc2ccccc2c1=O | > 100 | 67.7 | > 100 | 70.3 | > 100 | > 100 | 98.3 | – | > 100 | > 100 | 52.7 | > 100 | > 100 | 61.6 | 54.5 | > 100 | 83.1 | 55.3 | > 100 | –
CS(=O)(=O)c1ccc(-c2cc(-c3ccc(S(C)(=O)=O)cc3)[n+](-c3cc(-c4ccc(S(C)(=O)=O)cc4)c([O-])c(-c4ccc(S(C)(=O)=O)cc4)c3)c(-c3ccc(S(C)(=O)=O)cc3)c2)cc1 | > 100 | > 100 | > 100 | > 100 | > 100 | > 100 | > 100 | > 100 | – | > 100 | > 100 | > 100 | > 100 | – | > 100 | – | – | – | – | –
O=C(O)c1ccc(C2COc3ccc(Cl)cc3C2)cc1 (stereo not drawn) | > 100 | > 100 | > 100 | > 100 | > 100 | > 100 | > 100 | > 100 | > 100 | > 100 | > 100 | > 100 | > 100 | > 100 | > 100 | – | > 100 | – | – | –
CCn1c2ccccc2c2ccc3c(c21)C(=O)C=CC3=O | 44.5 | 4.52 | – | 27.7 | 63.3 | – | 17.2 | 44 | 34 | 27.4 | 30.2 | 29 | 15.4 | 12.9 | 38.5 | – | – | – | – | –
O=c1[nH]cc(COCCCO)c(=O)[nH]1 | > 100 | > 100 | > 100 | > 100 | > 100 | > 100 | > 100 | > 100 | > 100 | > 100 | > 100 | > 100 | > 100 | > 100 | – | – | > 100 | – | – | –
CC1(C)C=Cc2c(cc(O)c3c(=O)c4cc(Cl)ccc4[nH]c23)O1 | 8.25 | 6.46 | 6.33 | > 10 | > 10 | > 10 | 8.22 | 9.75 | > 10 | 8.75 | > 10 | > 10 | > 10 | 6.6 | > 10 | > 10 | – | > 10 | – | 5.97
CN(N=O)C(=O)ON1C(=O)CCC1=O | – | > 100 | > 100 | > 100 | > 100 | > 100 | > 100 | > 100 | > 100 | > 100 | > 100 | > 100 | > 100 | > 100 | > 100 | – | > 100 | – | – | –
CCN1CCC(C)OP1(=O)Cc1ccccc1 (stereo not drawn) | > 100 | – | > 100 | > 100 | – | > 100 | – | > 100 | > 100 | > 100 | > 100 | > 100 | > 100 | – | > 100 | > 100 | – | > 100 | – | > 100
CC1(C)OC(=O)C(C#N)=C1/C=C/c1coc2ccc(Cl)cc2c1=O | > 100 | > 100 | 53.5 | > 100 | 53.5 | 89.8 | 94.1 | 50.9 | 69.7 | > 100 | – | 74.6 | > 100 | – | > 100 | – | – | – | – | –
N#CC1C(=O)NC23CCCCC2C1c1ccccc1O3 (stereo not drawn) | > 100 | > 100 | > 100 | > 100 | > 100 | > 100 | > 100 | > 100 | > 100 | > 100 | > 100 | > 100 | > 100 | > 100 | > 100 | > 100 | > 100 | > 100 | – | > 100
CC(=O)C(CN(CC(C)C)CC(C)C)C(c1ccccc1)c1c(O)c2ccccc2oc1=O (stereo not drawn) | > 100 | > 100 | – | > 100 | > 100 | > 100 | > 100 | > 100 | > 100 | – | > 100 | > 100 | > 100 | > 100 | > 100 | – | > 100 | – | – | –
CSc1nc2c(c(=O)[nH]1)N=C(c1ccc([N+](=O)[O-])cc1)CC(c1ccccc1)N2 (stereo not drawn) | > 100 | > 100 | 55.6 | > 100 | 74.7 | > 100 | > 100 | 88.5 | – | 33.2 | > 100 | > 100 | 47.1 | 39.7 | 57.7 | > 100 | > 100 | 57.6 | – | > 100
O=c1nc(NC2CCCCO2)ccn1CCO (stereo not drawn) | > 100 | > 100 | > 100 | > 100 | > 100 | > 100 | – | > 100 | > 100 | > 100 | > 100 | > 100 | > 100 | > 100 | – | – | > 100 | – | – | –
O=C(NNCC(O)COc1ccccc1)c1ccccc1 (stereo not drawn) | > 100 | > 100 | > 100 | > 100 | > 100 | > 100 | > 100 | > 100 | > 100 | > 100 | > 100 | > 100 | > 100 | > 100 | > 100 | > 100 | > 100 | > 100 | – | > 100
COc1cc2c(c(OC)c1)/C(=C/Sc1ccccc1)C(=O)N(C(C)(C)C)C2 | 75.5 | – | 36.2 | 85.3 | – | 90 | > 100 | 42.5 | 76.9 | 66.1 | > 100 | 79.6 | 40.2 | 59.9 | > 100 | 55.2 | 78.1 | 96.3 | – | 56.7
CC(=O)NC(CCCNC(=O)N(CCCl)N=O)C(=O)NCc1ccccc1 (stereo not drawn) | > 100 | > 100 | – | > 100 | > 100 | > 100 | > 100 | > 100 | – | > 100 | > 100 | > 100 | > 100 | > 100 | > 100 | – | – | – | – | –
CCOC(=O)/C(C=Nc1c(C)n(C)n(-c2ccccc2)c1=O)=C(/C)O | > 100 | > 100 | > 100 | > 100 | > 100 | > 100 | > 100 | > 100 | > 100 | > 100 | > 100 | > 100 | > 100 | > 100 | > 100 | > 100 | > 100 | > 100 | – | > 100
COc1c(F)c(F)c(/C(O)=C\c2nc3ccccc3[nH]c2=O)c(F)c1F | > 10 | – | > 10 | > 10 | 6.01 | > 10 | > 10 | – | > 10 | > 10 | – | > 10 | – | > 10 | > 10 | > 10 | – | > 10 | – | –
Cc1ccc(/C=C/C(=O)C(C)(C)CN2CCCCC2)cc1 | 21.3 | 13.7 | 8.36 | 23.2 | 19.5 | 30.3 | 7.55 | 23.4 | 26.3 | 13.4 | 23.7 | 10.3 | 22.6 | – | 28.8 | – | 19.5 | – | – | –
Clc1ccc(Nc2nc3ccccc3nc2-c2cccs2)cc1Cl | > 100 | – | – | > 100 | > 100 | > 100 | > 100 | > 100 | > 100 | – | > 100 | 68.6 | > 100 | 78.3 | > 100 | – | – | – | – | –
CCCP1(=O)C=C(C)C(=C(Cl)Cl)C(C)=C1 (stereo not drawn) | > 100 | 36.5 | 49.1 | > 100 | – | > 100 | 98.6 | 41 | – | 67.9 | > 100 | > 100 | > 100 | 54.7 | 92.4 | – | > 100 | – | – | –
CC(C)(C)OC(=O)NC(Cc1ccc(O)cc1)C(=O)N1CCCC1C(=O)O (stereo not drawn) (Boc-Tyr-Pro-OH; configuration not given here) | > 100 | > 100 | > 100 | > 100 | > 100 | > 100 | > 100 | > 100 | > 100 | > 100 | > 100 | > 100 | > 100 | > 100 | > 100 | – | > 100 | – | – | –
O=C(CSc1nnc(Cc2ccccc2)o1)Nc1ccccc1 | > 100 | > 100 | > 100 | > 100 | > 100 | > 100 | > 100 | > 100 | > 100 | > 100 | > 100 | > 100 | > 100 | > 100 | > 100 | – | > 100 | – | – | –
COC(=O)c1onc(-c2c(OC)cc(OC)cc2OC)c1C(=O)OC | > 100 | > 100 | > 100 | > 100 | > 100 | > 100 | > 100 | > 100 | > 100 | > 100 | > 100 | > 100 | > 100 | > 100 | > 100 | – | – | – | – | –
c1ccc2c(c1)C1CCCCCC21N1CCOCC1 (stereo not drawn) | > 100 | > 100 | > 100 | > 100 | > 100 | > 100 | > 100 | > 100 | > 100 | > 100 | > 100 | > 100 | > 100 | > 100 | > 100 | – | > 100 | – | – | –
CC(=O)CN(Cc1cc(C)c2c(c1)c1ccccc1n2Cc1ccccc1)S(=O)(=O)c1ccc(C)cc1 | > 100 | > 100 | > 100 | > 100 | > 100 | > 100 | > 100 | > 100 | > 100 | > 100 | – | > 100 | > 100 | > 100 | > 100 | – | – | – | – | –
COc1ccc2c(c1)C(=O)C1CC(=O)CCC21 (stereo not drawn) | > 100 | > 100 | > 100 | > 100 | > 100 | > 100 | > 100 | > 100 | > 100 | > 100 | > 100 | > 100 | > 100 | > 100 | > 100 | – | > 100 | – | – | –
